The record followed here is ChEMBL document CHEMBL1142986, “Synthesis of valiolamine and some precursors for bioactive carbaglycosylamines from (-)-vibo-quercitol produced by biogenesis of myo-inositol” (J Nat Prod, 2007).

The target of the assay is Alpha-glucosidase MAL12 (Saccharomyces cerevisiae S288c, UniProt P53341). The assay can be described thus: Inhibition of baker's yeast alpha-glucosidase.

As usually defined, the IC50 is the point on the concentration scale where inhibition reaches its midpoint.

Chain of Alpha-glucosidase MAL12 (P53341 whole entry): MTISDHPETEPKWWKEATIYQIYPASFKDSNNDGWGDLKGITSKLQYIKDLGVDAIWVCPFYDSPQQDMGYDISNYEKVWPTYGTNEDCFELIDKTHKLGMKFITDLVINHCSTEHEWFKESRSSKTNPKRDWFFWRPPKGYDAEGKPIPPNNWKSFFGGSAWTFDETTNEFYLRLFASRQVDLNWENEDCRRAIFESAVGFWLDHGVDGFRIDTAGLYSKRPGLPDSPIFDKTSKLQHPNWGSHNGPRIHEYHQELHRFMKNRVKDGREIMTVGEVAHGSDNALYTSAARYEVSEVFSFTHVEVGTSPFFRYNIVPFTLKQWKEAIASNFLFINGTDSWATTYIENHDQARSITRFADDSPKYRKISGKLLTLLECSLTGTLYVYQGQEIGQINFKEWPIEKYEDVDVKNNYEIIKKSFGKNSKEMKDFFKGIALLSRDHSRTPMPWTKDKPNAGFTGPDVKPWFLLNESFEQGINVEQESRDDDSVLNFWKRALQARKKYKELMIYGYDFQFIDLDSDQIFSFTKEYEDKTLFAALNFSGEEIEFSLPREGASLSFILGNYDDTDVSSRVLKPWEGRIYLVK

The compound `N[C@@H]1C[C@](O)(CO)[C@@H](O)[C@H](O)[C@H]1O` came in with an IC50 of 36 µM.
